Molecules are shown by their SMILES. pIC50: −log10 of the molar value. Some results are limits rather than exact numbers.

In the assay the target is USP1 (construct USP1 (I-785, GG670, 671AA)/UAF1 (I-677)-Flag) (Homo sapiens (Human), UniProt O94782, G670A/G671A). Kind of assay: Ubiquitin-Rhodamine 110 assay for USP1 activity. It counts as biochemical. To be noted: USP1/UAF1 25 pM, Ub-Rh110 25 nM, 30 min preincubation. Put shortly: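 Two formats with the USP1/UAF1 complex and 25 nM ubiquitin-rhodamine 110 in pH 8.0 Tris buffer with calcium, glutathione and detergent. Single-point screening used 10 µM, 100 pM enzyme and 45 min. Inhibition was set against no-enzyme and DMSO wells.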
Sequence of USP1 (construct USP1 (I-785, GG670, 671AA)/UAF1 (I-677)-Flag) (O94782 whole entry G670A/G671A): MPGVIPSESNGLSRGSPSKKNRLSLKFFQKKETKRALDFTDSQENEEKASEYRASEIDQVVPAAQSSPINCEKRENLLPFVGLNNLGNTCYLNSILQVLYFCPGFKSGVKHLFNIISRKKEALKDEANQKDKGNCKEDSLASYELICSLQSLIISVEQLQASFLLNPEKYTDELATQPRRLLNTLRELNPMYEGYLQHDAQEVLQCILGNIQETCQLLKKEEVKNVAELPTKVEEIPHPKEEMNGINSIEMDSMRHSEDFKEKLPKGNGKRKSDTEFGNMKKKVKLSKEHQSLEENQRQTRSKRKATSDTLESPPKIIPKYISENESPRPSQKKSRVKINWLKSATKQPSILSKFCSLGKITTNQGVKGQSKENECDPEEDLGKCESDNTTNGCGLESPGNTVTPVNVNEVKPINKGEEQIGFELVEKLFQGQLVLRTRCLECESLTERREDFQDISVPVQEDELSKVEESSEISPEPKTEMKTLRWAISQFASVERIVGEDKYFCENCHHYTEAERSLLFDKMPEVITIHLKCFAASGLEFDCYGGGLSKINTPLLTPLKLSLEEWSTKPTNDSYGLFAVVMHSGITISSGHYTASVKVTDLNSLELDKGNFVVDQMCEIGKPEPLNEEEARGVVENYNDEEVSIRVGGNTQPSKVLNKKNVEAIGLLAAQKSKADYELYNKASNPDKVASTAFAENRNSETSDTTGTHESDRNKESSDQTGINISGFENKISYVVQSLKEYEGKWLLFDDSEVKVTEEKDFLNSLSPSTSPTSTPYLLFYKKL
Sequence of USP1 (construct USP1 (I-785, GG670, 671AA)/UAF1 (I-677)-Flag) (Q8TAF3 whole entry partner): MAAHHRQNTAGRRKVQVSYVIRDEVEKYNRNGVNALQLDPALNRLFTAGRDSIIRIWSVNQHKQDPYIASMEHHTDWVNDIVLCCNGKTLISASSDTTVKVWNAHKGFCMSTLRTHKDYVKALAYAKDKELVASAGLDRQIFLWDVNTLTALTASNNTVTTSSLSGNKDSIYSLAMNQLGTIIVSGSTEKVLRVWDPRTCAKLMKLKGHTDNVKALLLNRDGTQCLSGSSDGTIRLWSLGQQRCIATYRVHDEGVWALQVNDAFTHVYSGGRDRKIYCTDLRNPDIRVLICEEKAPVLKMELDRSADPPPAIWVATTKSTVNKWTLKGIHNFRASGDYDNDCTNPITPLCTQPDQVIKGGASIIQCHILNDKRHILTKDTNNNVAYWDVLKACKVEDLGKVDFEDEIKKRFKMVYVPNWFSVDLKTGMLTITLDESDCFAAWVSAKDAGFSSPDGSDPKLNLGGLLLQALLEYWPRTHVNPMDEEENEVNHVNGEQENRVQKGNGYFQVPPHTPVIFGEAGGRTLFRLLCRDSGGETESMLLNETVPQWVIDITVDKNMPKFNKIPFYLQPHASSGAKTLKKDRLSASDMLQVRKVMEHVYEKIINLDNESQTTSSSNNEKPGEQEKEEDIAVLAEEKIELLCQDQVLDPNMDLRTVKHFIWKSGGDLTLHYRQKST
For the compound `COc1ncccc1-c1ncc2[nH]c(=O)n(Cc3ccc(-c4nc(C(F)(F)F)cn4C)cc3)c2n1` [Compound I-412, 2-(2-methoxypyridin-3-yl)-9-(4-(1-methyl-4-(trifluoromethyl)-1H-imidazol-2-yl)benzyl)-7,9-dihydro-8H-purin-8-one], the pIC50 was over 7.30.

Consider `CC(C)c1ccccc1-c1ncc2[nH]c(=O)n(Cc3ccc(C(=O)N4CCCC4)cc3)c2n1` [Compound I-389, 2-(2-isopropylphenyl)-9-(4-(pyrrolidine-1-carbonyl)benzyl)-7,9-dihydro-8H-purin-8-one], for which the negative logarithm of the IC50 (pIC50) was over 7.30.

Compound `Cc1cc(C)n(-c2ccc(Cn3c(=O)[nH]c4cnc(-c5ccccc5C(C)C)nc43)cc2)n1` [Compound I-1, 9-(4-(3,5-Dimethyl-1H-pyrazol-1-yl)benzyl)-2-(2-isopropylphenyl)-7,9-dihydro-8H-purin-8-one] had a pIC50 of over 7.30.

Regarding `CC(C)c1ncccc1-c1ncc2[nH]c(=O)n(Cc3cc(F)c(-c4nc(C(F)(F)F)cn4C)c(F)c3)c2n1` [Compound I-82, 9-(3,5-difluoro-4-(1-methyl-4-(trifluoromethyl)-1H-imidazol-2-yl)benzyl)-2-(2-isopropylpyridin-3-yl)-7,9-dihydro-8H-purin-8-one], the negative logarithm of the IC50 (pIC50) was over 7.30.

The compound `Cn1cc(C(F)(F)F)nc1-c1ccc(Cn2c(=O)[nH]c3cnc(-c4cccnc4N[C@H]4CCOC4)nc32)cc1` [Compound I-322, (S)-9-(4-(1-methyl-4-(trifluoromethyl)-1H-imidazol-2-yl)benzyl)-2-(2-((tetrahydrofuran-3-yl)amino)pyridin-3-yl)-7,9-dihydro-8H-purin-8-one] had a negative logarithm of the IC50 (pIC50) of 6.70 to 7.30.

Regarding `CCCOc1ccccc1-c1ncc2[nH]c(=O)n(Cc3ccc(-n4cccn4)cc3)c2n1` [Compound I-21, 9-(4-(1H-pyrazol-1-yl)benzyl)-2-(2-propoxyphenyl)-7,9-dihydro-8H-purin-8-one], the negative logarithm of the IC50 (pIC50) was 6.70 to 7.30.

`COCCn1ccnc1-c1ccc(Cn2c(=O)n(C)c3cnc(-c4ccccc4C(C)C)nc32)cc1` [Compound I-498, 2-(2-isopropylphenyl)-9-(4-(1-(2-methoxyethyl)-1H-imidazol-2-yl)benzyl)-7-methyl-7,9-dihydro-8H-purin-8-one]: the pIC50 was over 7.30.

As to `Cc1cc(C(F)(F)F)nn1-c1ccc(Cn2c(=O)n(C)c3cnc(-c4cccnc4C(C)C)nc32)cc1` [Compound I-113, 2-(2-isopropylpyridin-3-yl)-7-methyl-9-(4-(5-methyl-3-(trifluoromethyl)-1H-pyrazol-1-yl)benzyl)-7,9-dihydro-8H-purin-8-one], the negative-log IC50 (pIC50) was over 7.30.

Turning to `[2H]C([2H])([2H])n1cc(C(F)(F)F)nc1-c1ccc(Cn2c(=O)n(C)c3cnc(-c4cccnc4C(C)C)nc32)cc1` [Compound I-131, 2-(2-isopropylpyridin-3-yl)-7-methyl-9-(4-(1-(methyl-d3)-4-(trifluoromethyl)-1H-imidazol-2-yl)benzyl)-7,9-dihydro-8H-purin-8-one], the negative logarithm of the IC50 (pIC50) was over 7.30.

`Cc1cc(C)n(-c2cnc(Cn3c(=O)[nH]c4cnc(-c5ccccc5C(C)C)nc43)nc2)n1` [Compound I-511, 9-((5-(3,5-Dimethyl-1H-pyrazol-1-yl)pyrimidin-2-yl)methyl)-2-(2-isopropylphenyl)-7,9-dihydro-8H-purin-8-one] gave a negative logarithm of the IC50 (pIC50) of 5.70 to 6.70.

As to `CC(C)c1ccccc1-c1ncc2c(n1)n(Cc1ccc(OCc3cncn3C)cc1)c(=O)n2C` [Compound I-232, 2-(2-isopropylphenyl)-7-methyl-9-(4-((1-methyl-1H-imidazol-5-yl)methoxy)benzyl)-7,9-dihydro-8H-purin-8-one], the pIC50 was 5.70 to 6.70.

The compound `CC(C)c1ccccc1-c1ncc2c(n1)n(Cc1ccc(-c3ncsc3CO)cc1)c(=O)n2C` [Compound I-305, 9-(4-(5-(hydroxymethyl)thiazol-4-yl)benzyl)-2-(2-isopropylphenyl)-7-methyl-7,9-dihydro-8H-purin-8-one] gave a negative logarithm of the IC50 (pIC50) of over 7.30.

The compound `Cc1nc(N2CCC(F)(Cn3c(=O)[nH]c4cnc(-c5ccccc5C(C)C)nc43)CC2)c(C)s1` [Compound I-514, 9-((1-(2,5-Dimethylthiazol-4-yl)-4-fluoropiperidin-4-yl)methyl)-2-(2-isopropylphenyl)-7,9-dihydro-8H-purin-8-one] had a pIC50 of over 7.30.

As for `CC(C)c1ccccc1-c1ncc2c(n1)n(Cc1cccc(OC3CCC3)c1)c(=O)n2C` [Compound I-246, 9-(3-cyclobutoxybenzyl)-2-(2-isopropylphenyl)-7-methyl-7,9-dihydro-8H-purin-8-one], the pIC50 was under 5.70.

`CC(C)c1ccccc1-c1ncc2[nH]c(=O)n(Cc3ccc(-c4ncn(C)n4)cc3)c2n1` [Compound I-274, 2-(2-isopropylphenyl)-9-(4-(1-methyl-1H-1,2,4-triazol-3-yl)benzyl)-7,9-dihydro-8H-purin-8-one] showed a pIC50 of 6.70 to 7.30.

For `CC(C)c1ccccc1-c1ncc2[nH]c(=O)n(Cc3ccc(C(=O)N(C)C4CCOC4)cc3)c2n1` (centres unmarked) [Compound I-402, 4-((2-(2-isopropylphenyl)-8-oxo-7,8-dihydro-9H-purin-9-yl)methyl)-N-methyl-N-(tetrahydrofuran-3-yl)benzamide], the negative logarithm of the IC50 (pIC50) was 5.70 to 6.70.

As to `CCN(C)C(=O)c1ccc(Cn2c(=O)[nH]c3cnc(-c4ccccc4C(C)C)nc32)cc1` [Compound I-373, N-ethyl-4-((2-(2-isopropylphenyl)-8-oxo-7,8-dihydro-9H-purin-9-yl)methyl)-N-methylbenzamide], the pIC50 is over 7.30.

Turning to `Cn1cc(C(F)(F)F)nc1-c1ccc(Cn2c(=O)n(C)c3cnc(-c4cccnc4N4CC(F)(F)C4)nc32)cc1` [Compound I-135, 2-(2-(3,3-difluoroazetidin-1-yl)pyridin-3-yl)-7-methyl-9-(4-(1-methyl-4-(trifluoromethyl)-1H-imidazol-2-yl)benzyl)-7,9-dihydro-8H-purin-8-one], the negative logarithm of the IC50 (pIC50) is 6.70 to 7.30.

Compound `CC(C)c1ccccc1-c1ncc2c(n1)n(Cc1ccc(-c3nc(C#N)cn3C)cc1)c(=O)n2C` [Compound I-541, 2-(4-((2-(2-Isopropylphenyl)-7-methyl-8-oxo-7,8-dihydro-9H-purin-9-yl)methyl)phenyl)-1-methyl-1H-imidazole-4-carbonitrile] gave a pIC50 of over 7.30.

`CC(C)c1ccccc1-c1ncc2c(n1)n(Cc1ccc(N(C)S(C)(=O)=O)cc1)c(=O)n2C` [Compound I-459, N-(4-((2-(2-isopropylphenyl)-7-methyl-8-oxo-7,8-dihydro-9H-purin-9-yl)methyl)phenyl)-N-methylmethanesulfonamide]: the pIC50 was 5.70 to 6.70.

In turn, `O=c1[nH]c2cnc(-c3ccccc3OCC3CC3)nc2n1Cc1ccc(-n2cccn2)cc1` [Compound I-23, 9-(4-(1H-pyrazol-1-yl)benzyl)-2-(2-(cyclopropylmethoxy)phenyl)-7,9-dihydro-8H-purin-8-one] had a pIC50 of 6.70 to 7.30.

Take `CC(C)c1ccccc1-c1ncc2[nH]c(=O)n(Cc3ccc(-c4nc(C(F)(F)F)cn4CCO)cc3)c2n1` [Compound I-506, 9-(4-(1-(2-hydroxyethyl)-4-(trifluoromethyl)-1H-imidazol-2-yl)benzyl)-2-(2-isopropylphenyl)-7,9-dihydro-8H-purin-8-one]: the negative logarithm of the IC50 (pIC50) was over 7.30.

The compound `Cc1nc(-c2ccc(Cn3c(=O)[nH]c4cnc(-c5cccc(F)c5C(C)C)nc43)cc2)no1` [Compound I-188, 2-(3-fluoro-2-isopropylphenyl)-9-(4-(5-methyl-1,2,4-oxadiazol-3-yl)benzyl)-7,9-dihydro-8H-purin-8-one] showed a pIC50 of over 7.30.

(Values after patent publication US10189841B2, “Purinones as ubiquitin-specific protease 1 inhibitors” (Forma Therapeutics, Inc., priority 2015, dated 2019).)
